Assay results taken from ChEMBL document CHEMBL4602696, “LMP2 Inhibitors as a Potential Treatment for Alzheimer's Disease” (J Med Chem, 2020).
Active and inactive are the calls of the source. The rule behind the calls is not given here.

Experiments:
[1] = Inhibition of LMP7/Beta 5 subunit chymotrypsin-like activity in human RPM18226 cell lysates using Suc-LLVY-AMC as substrate after 1 hr by fluorescence based microplate reader analysis; type: cell-free; conditions: rpmi-8226
[2] = target: T1, Proteasome subunit beta type-9 (Homo sapiens, UniProt P28065); assay: Inhibition of LMP2 in human 20S immunoproteasome using Ac-PAL-AMC as substrate after 1 hr by fluorescence based microplate reader analysis
T1 sequence (P28065 whole entry): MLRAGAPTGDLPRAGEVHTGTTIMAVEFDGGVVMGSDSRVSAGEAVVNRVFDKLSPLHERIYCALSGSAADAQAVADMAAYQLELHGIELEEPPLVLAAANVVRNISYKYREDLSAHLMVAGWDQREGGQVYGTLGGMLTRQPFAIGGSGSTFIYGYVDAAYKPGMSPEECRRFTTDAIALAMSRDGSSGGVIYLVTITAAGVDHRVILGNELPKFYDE

[3] = target: T2, Proteasome subunit beta type-9 (Homo sapiens) (UniProt P28065); assay: Inhibition of LMP2 subunit in human DLD1 cells over expressing ABCB1 at 1 uM using Ac-PAL-AMC as substrate incubated for 4 hrs; type: cell-based; conditions: DLD-1
T2 sequence (whole entry): T1 sequence (P28065 whole entry)

[4] = target: T2, Proteasome subunit beta type-9 (Homo sapiens); assay: Inhibition of immunoproteasome LMP2 subunit in human DLD1 cells over expressing ABCB1 at 3 uM using Ac-PAL-AMC as substrate incubated for 4 hrs in presence of reversin-121; type: cell-based; conditions: DLD-1
[5] = target: T3, Proteasome subunit beta type-8 (Homo sapiens, UniProt P28062); assay: Inhibition of LMP7 in human 20S immunoproteasome using Ac-ANW-AMC as substrate after 1 hr by fluorescence based microplate reader analysis
T3 sequence (P28062 whole entry): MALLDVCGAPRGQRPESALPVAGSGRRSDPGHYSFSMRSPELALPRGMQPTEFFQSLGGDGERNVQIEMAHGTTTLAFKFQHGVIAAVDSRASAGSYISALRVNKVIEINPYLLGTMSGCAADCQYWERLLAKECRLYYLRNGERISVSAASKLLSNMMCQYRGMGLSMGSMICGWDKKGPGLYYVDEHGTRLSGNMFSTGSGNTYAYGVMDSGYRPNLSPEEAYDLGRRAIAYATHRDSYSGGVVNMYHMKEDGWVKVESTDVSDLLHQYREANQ

[6] = target: T4, Proteasome Macropain subunit MB1 (Homo sapiens, UniProt P28074); assay: Inhibition of Beta5 in human 20S […] usingAc-WLA-AMC as substrate after 1 hr by fluorescence based microplate reader analysis
T4 sequence (P28074 whole entry): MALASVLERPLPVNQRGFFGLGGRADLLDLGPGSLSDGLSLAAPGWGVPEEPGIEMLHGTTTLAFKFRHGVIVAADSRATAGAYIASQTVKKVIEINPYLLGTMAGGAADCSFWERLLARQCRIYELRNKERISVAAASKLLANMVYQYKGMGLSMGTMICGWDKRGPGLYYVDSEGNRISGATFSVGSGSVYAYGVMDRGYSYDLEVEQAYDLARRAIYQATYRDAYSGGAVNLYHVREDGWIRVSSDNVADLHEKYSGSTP

[7] = test system: BV-2; assay: Antiinflammatory activity against mouse BV2 cells assessed as reduction in LPS-induced IL-1alpha release after 24 hrs by ELISA; type: functional, cell-based
[8] = target: T2, Proteasome subunit beta type-9 (Homo sapiens); assay: Inhibition of LMP2 in human ARPE-19 cells assessed as suppression of TNFalpha-stimulated EMT by measuring E-cadherin expression after 24 hrs by immunofluorescence analysis; type: cell-based
[9] = target: T2, Proteasome subunit beta type-9 (Homo sapiens); assay: Inhibition of LMP2 in human ARPE-19 cells assessed as suppression of TNFalpha-stimulated EMT by measuring vimentin expression after 24 hrs by immunofluorescence analysis; type: cell-based
[10] = test system: Mus musculus; assay: Antialzheimer activity in transgenic Tg2576 ICR mouse at 10 mg/kg, iv administered twice per week for 3 weeks by Morris water maze test; type: functional, organism-based
[11] = test system: Mus musculus; assay: Antialzheimer activity in transgenic Tg2576 ICR mouse assessed as reduction in IL-1alpha level in serum at 10 mg/kg, iv administered twice per week for 3 weeks by ELISA; type: functional, organism-based
[12] = test system: Mus musculus; assay: Antineuroinflammatory activity in APP transgenic Tg2576 mouse assessed as inhibition of retinal pigment epithelium degeneration at 10 mg/kg, iv administered twice per week for 3 weeks by immuno staining based confocal microscopic analysis relative to control; type: functional; parameters: scale not given: the % may be the effect or the level left
[13] = Toxicity in transgenic Tg2576 ICR mouse at 10 mg/kg, iv administered twice per week for 3 weeks; type: organism-based; conditions: in vivo, 504 h
[14] = test system: BV-2; assay: Cytotoxicity against mouse BV2 cells up to 10 uM after 72 hrs by CellTiter 96 aqueous one solution reagent based assay; type: cell-based; conditions: bv-2, 72 h
[15] = test system: RPMI-8226; assay: Cytotoxicity against human RPM18226 cells up to 10 uM after 72 hrs by CellTiter 96 aqueous one solution reagent based assay; type: cell-based; conditions: rpmi-8226, 72 h
[16] = test system: WI-38; assay: Cytotoxicity against human WI38 cells up to 10 uM after 72 hrs by CellTiter 96 aqueous one solution reagent based assay; type: cell-based; conditions: wi-38, 72 h

With `CC(C)C[C@H](NC(=O)[C@H](Cc1ccccc1)NC(=O)[C@@H]1CCCN1C(=O)CNC(=O)c1cnccn1)C(=O)[C@@]1(C)CO1` the IC50 [1] was > 10 µM, the IC50 [2] was 0.07 to 0.0806 µM and the inhibition [3] was “Active”. The inhibition [4] was “Active”, the IC50 [5] was > 10 µM and the IC50 [6] was > 10 µM. For the same compound, the Activity [7] was “Active”, the inhibition [8] was “Active” and the inhibition [9] was “Active”. The Activity [10] was “Active”, the Activity [11] was “Active” and the Activity [12] was 100%. For the same compound, the Activity [13] was “Non-Toxic”, the Activity [14] was “Non-Toxic” and the Activity [15] was “Non-Toxic”. For the same compound, the Activity [16] was “Non-Toxic”.
